Laboratory results as given in PubChem BioAssay (NCI).
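Method: 48-hour compound exposure of cells in 96-well plates, five concentrations, linear interpolation of endpoints. GI50 marks 50% less growth. TGI: total growth inhibition.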

How the values were obtained:
Experiment in all cases: inhibition of tumour cell growth, NCI panel, 48 h
NCI-H226 lung = tested on: NCI-H226 lung
SR leukemia = tested on: SR leukemia
HOP-62 NSCLC = tested on: HOP-62 NSCLC
NCI-H23 lung = tested on: NCI-H23 lung
M14 melanoma = tested on: M14 melanoma
A549 NSCLC = tested on: A549 NSCLC
SW-620 colon = tested on: SW-620 colon
MALME-3M melanoma = tested on: MALME-3M melanoma
HT29 colon = tested on: HT29 colon
NCI/ADR-RES ovarian = tested on: NCI/ADR-RES ovarian
UACC-62 melanoma = tested on: UACC-62 melanoma
RPMI-8226 leukemia = tested on: RPMI-8226 leukemia
K-562 leukemia = tested on: K-562 leukemia
SK-MEL-2 melanoma = tested on: SK-MEL-2 melanoma
UACC-257 melanoma = tested on: UACC-257 melanoma
TK-10 renal = tested on: TK-10 renal
CAKI-1 renal = tested on: CAKI-1 renal
HOP-92 NSCLC = tested on: HOP-92 NSCLC
SF-268 CNS = tested on: SF-268 CNS
U251 CNS = tested on: U251 CNS
KM12 colon = tested on: KM12 colon
786-0 renal = tested on: 786-0 renal
SF-539 CNS = tested on: SF-539 CNS
MCF7 breast = tested on: MCF7 breast
OVCAR-4 ovarian = tested on: OVCAR-4 ovarian
EKVX NSCLC = tested on: EKVX NSCLC
A498 renal = tested on: A498 renal
HS 578T breast = tested on: HS 578T breast
BT-549 breast = tested on: BT-549 breast
CCRF-CEM leukemia = tested on: CCRF-CEM leukemia
OVCAR-3 ovarian = tested on: OVCAR-3 ovarian
IGROV1 ovarian = tested on: IGROV1 ovarian
MDA-MB-468 breast = tested on: MDA-MB-468 breast
SN12C renal = tested on: SN12C renal
RXF 393 renal = tested on: RXF 393 renal
OVCAR-5 ovarian = tested on: OVCAR-5 ovarian
MOLT-4 leukemia = tested on: MOLT-4 leukemia
COLO 205 colon = tested on: COLO 205 colon
T-47D breast = tested on: T-47D breast
MDA-MB-435 = tested on: MDA-MB-435
DU-145 prostate = tested on: DU-145 prostate
MDA-MB-231 breast = tested on: MDA-MB-231 breast
HCT-15 colon = tested on: HCT-15 colon
NCI-H522 lung = tested on: NCI-H522 lung
OVCAR-8 ovarian = tested on: OVCAR-8 ovarian
ACHN renal = tested on: ACHN renal
SF-295 CNS = tested on: SF-295 CNS
SK-OV-3 ovarian = tested on: SK-OV-3 ovarian
SNB-19 CNS = tested on: SNB-19 CNS
UO-31 renal = tested on: UO-31 renal
LOX IMVI melanoma = tested on: LOX IMVI melanoma
PC-3 prostate = tested on: PC-3 prostate
SK-MEL-28 melanoma = tested on: SK-MEL-28 melanoma
HL-60(TB) leukemia = tested on: HL-60(TB) leukemia
SK-MEL-5 melanoma = tested on: SK-MEL-5 melanoma
NCI-H460 lung = tested on: NCI-H460 lung
HCC-2998 colon = tested on: HCC-2998 colon

COc1ccc(C(=O)/C=C/c2ccc(Cl)c(Cl)c2)cc1S(N)(=O)=O showed a GI50 (NCI-H226 lung) of 3040 nM, a TGI (NCI-H226 lung) of 13400 nM and a GI50 (SR leukemia) of 797 nM. It also gave a TGI (SR leukemia) of 10200 nM, a GI50 (HOP-62 NSCLC) of 1890 nM and a TGI (HOP-62 NSCLC) of 4750 nM. For the same compound, the GI50 (NCI-H23 lung) was 1750 nM, the TGI (NCI-H23 lung) was 3430 nM and the GI50 (M14 melanoma) was 1860 nM. It also gave a TGI (M14 melanoma) of 3900 nM, a GI50 (A549 NSCLC) of 2170 nM and a TGI (A549 NSCLC) of 10500 nM. It also gave a GI50 (SW-620 colon) of 1340 nM, a TGI (SW-620 colon) of 3520 nM and a GI50 (MALME-3M melanoma) of 2150 nM. It also gave a TGI (MALME-3M melanoma) of 5170 nM, a GI50 (HT29 colon) of 1460 nM and a TGI (HT29 colon) of 2770 nM. It also gave a GI50 (NCI/ADR-RES ovarian) of 2250 nM, a TGI (NCI/ADR-RES ovarian) of 5930 nM and a GI50 (UACC-62 melanoma) of 1480 nM. For the same compound, the TGI (UACC-62 melanoma) was 2960 nM, the GI50 (RPMI-8226 leukemia) was 1670 nM and the TGI (RPMI-8226 leukemia) was 5960 nM. For the same compound, the GI50 (K-562 leukemia) was 2030 nM, the TGI (K-562 leukemia) was 10800 nM and the GI50 (SK-MEL-2 melanoma) was 5660 nM. For the same compound, the TGI (SK-MEL-2 melanoma) was 18600 nM, the GI50 (UACC-257 melanoma) was 2500 nM and the TGI (UACC-257 melanoma) was 8990 nM. The GI50 (TK-10 renal) was 2020 nM, the TGI (TK-10 renal) was 5890 nM and the GI50 (CAKI-1 renal) was 1750 nM. For the same compound, the TGI (CAKI-1 renal) was 4190 nM, the GI50 (HOP-92 NSCLC) was 2290 nM and the TGI (HOP-92 NSCLC) was 7310 nM. For the same compound, the GI50 (SF-268 CNS) was 2910 nM, the TGI (SF-268 CNS) was 11900 nM and the GI50 (U251 CNS) was 1410 nM. It also gave a TGI (U251 CNS) of 2930 nM, a GI50 (KM12 colon) of 888 nM and a TGI (KM12 colon) of 2430 nM. The GI50 (786-0 renal) was 1620 nM, the TGI (786-0 renal) was 3110 nM and the GI50 (SF-539 CNS) was 1670 nM. The TGI (SF-539 CNS) was 3250 nM, the GI50 (MCF7 breast) was 1050 nM and the TGI (MCF7 breast) was 3160 nM. It also gave a GI50 (OVCAR-4 ovarian) of 1600 nM, a TGI (OVCAR-4 ovarian) of 2970 nM and a GI50 (EKVX NSCLC) of 2120 nM. For the same compound, the TGI (EKVX NSCLC) was 4730 nM, the GI50 (A498 renal) was 8860 nM and the TGI (A498 renal) was 22100 nM. It also gave a GI50 (HS 578T breast) of 6010 nM, a TGI (HS 578T breast) of 52000 nM and a GI50 (BT-549 breast) of 1630 nM. The TGI (BT-549 breast) was 3330 nM, the GI50 (CCRF-CEM leukemia) was 2700 nM and the TGI (CCRF-CEM leukemia) was 7950 nM. It also gave a GI50 (OVCAR-3 ovarian) of 1190 nM, a TGI (OVCAR-3 ovarian) of 2550 nM and a GI50 (IGROV1 ovarian) of 2000 nM. The TGI (IGROV1 ovarian) was 5130 nM, the GI50 (MDA-MB-468 breast) was 1470 nM and the TGI (MDA-MB-468 breast) was 2980 nM. The GI50 (SN12C renal) was 1390 nM, the TGI (SN12C renal) was 2740 nM and the GI50 (RXF 393 renal) was 1740 nM. The TGI (RXF 393 renal) was 3500 nM, the GI50 (OVCAR-5 ovarian) was 1600 nM and the TGI (OVCAR-5 ovarian) was 3340 nM. It also gave a GI50 (MOLT-4 leukemia) of 2350 nM, a TGI (MOLT-4 leukemia) of 6750 nM and a GI50 (COLO 205 colon) of 1830 nM. For the same compound, the TGI (COLO 205 colon) was 3430 nM, the GI50 (T-47D breast) was 1970 nM and the TGI (T-47D breast) was 5570 nM. For the same compound, the GI50 (MDA-MB-435) was 2420 nM, the TGI (MDA-MB-435) was 7260 nM and the GI50 (DU-145 prostate) was 3500 nM. It also gave a TGI (DU-145 prostate) of 12800 nM, a GI50 (MDA-MB-231 breast) of 1990 nM and a TGI (MDA-MB-231 breast) of 4110 nM. For the same compound, the GI50 (HCT-15 colon) was 496 nM, the TGI (HCT-15 colon) was 1810 nM and the GI50 (NCI-H522 lung) was 1580 nM. It also gave a TGI (NCI-H522 lung) of 3160 nM, a GI50 (OVCAR-8 ovarian) of 2000 nM and a TGI (OVCAR-8 ovarian) of 5750 nM. The GI50 (ACHN renal) was 1710 nM, the TGI (ACHN renal) was 3110 nM and the GI50 (SF-295 CNS) was 1740 nM. For the same compound, the TGI (SF-295 CNS) was 3770 nM, the GI50 (SK-OV-3 ovarian) was 5530 nM and the TGI (SK-OV-3 ovarian) was 18000 nM. For the same compound, the GI50 (SNB-19 CNS) was 1880 nM, the TGI (SNB-19 CNS) was 4210 nM and the GI50 (UO-31 renal) was 1270 nM. The TGI (UO-31 renal) was 2520 nM, the GI50 (LOX IMVI melanoma) was 653 nM and the TGI (LOX IMVI melanoma) was 1930 nM. For the same compound, the GI50 (PC-3 prostate) was 1860 nM, the TGI (PC-3 prostate) was 5070 nM and the GI50 (SK-MEL-28 melanoma) was 1750 nM. It also gave a TGI (SK-MEL-28 melanoma) of 3260 nM, a GI50 (HL-60(TB) leukemia) of 1880 nM and a TGI (HL-60(TB) leukemia) of 6310 nM. It also gave a GI50 (SK-MEL-5 melanoma) of 2450 nM, a TGI (SK-MEL-5 melanoma) of 6890 nM and a GI50 (NCI-H460 lung) of 2720 nM. For the same compound, the TGI (NCI-H460 lung) was 8220 nM, the GI50 (HCC-2998 colon) was 1400 nM and the TGI (HCC-2998 colon) was 2710 nM.
